Data as given in ChEMBL document CHEMBL3045446, “In vitro antimicrobial and antimycobacterial activity of some chalcones and their derivatives” (2013).
Converted amounts (≈) assume the structure as drawn.

Columns and labels:
Assay type in all cases: functional
[1] = tested on: Mycobacterium tuberculosis; test: Antituberculosis activity against Mycobacterium tuberculosis H37Rv assessed as growth inhibition after 12 to 28 days by L-J MIC method; settings: for MIC: Mycobacterium tuberculosis, H37Rv
Candida albicans [2] = test: Antimicrobial activity against Candida albicans MTCC 183 assessed as growth inhibition after 48 hr by agar streak dilution method; settings: MTCC 183, 48 h
Aspergillus clavatus [3] = test: Antimicrobial activity against Aspergillus clavatus MTCC 1323 assessed as growth inhibition after 48 hr by agar streak dilution method; settings: MTCC 1323, 48 h
Aspergillus fumigatus [4] = test: Antimicrobial activity against Aspergillus fumigatus MTCC 343 assessed as growth inhibition after 48 hr by agar streak dilution method; settings: MTCC 343, 48 h
Aspergillus niger [5] = test: Antimicrobial activity against Aspergillus niger MTCC 282 assessed as growth inhibition after 48 hr by agar streak dilution method; settings: MTCC 282, 48 h
Shigella flexneri [6] = test: Antimicrobial activity against Shigella flexneri MTCC1457 assessed as growth inhibition after 24 hr by agar streak dilution method; settings: MTCC1457, 24 h
Proteus vulgaris [7] = test: Antimicrobial activity against Proteus vulgaris MTCC 1771 assessed as growth inhibition after 24 hr by agar streak dilution method; settings: MTCC 1771, 24 h
Salmonella typhi [8] = test: Antimicrobial activity against Salmonella enterica subsp. enterica serovar Typhi MTCC 733 assessed as growth inhibition after 24 hr by agar streak dilution method; settings: MTCC 733, 24 h
Klebsiella pneumoniae [9] = test: Antimicrobial activity against Klebsiella pneumoniae MTCC 109 assessed as growth inhibition after 24 hr by agar streak dilution method; settings: MTCC 109, 24 h
Pseudomonas aeruginosa [10] = test: Antimicrobial activity against Pseudomonas aeruginosa MTCC 741 assessed as growth inhibition after 24 hr by agar streak dilution method; settings: MTCC 741, 24 h
Escherichia coli [11] = test: Antimicrobial activity against Escherichia coli MTCC 739 assessed as growth inhibition after 24 hr by agar streak dilution method; settings: MTCC 739, 24 h
Bacillus cereus [12] = test: Antimicrobial activity against Bacillus cereus MTCC 430 assessed as growth inhibition after 24 hr by agar streak dilution method; settings: MTCC 430, 24 h
Staphylococcus aureus [13] = test: Antimicrobial activity against Staphylococcus aureus MTCC 96 assessed as growth inhibition after 24 hr by agar streak dilution method; settings: MTCC 96, 24 h
Candida albicans [14] = test: Antimicrobial activity against Candida albicans MTCC 183 assessed as diameter of growth inhibition zone after 48 hr
Aspergillus clavatus [15] = test: Antimicrobial activity against Aspergillus clavatus MTCC 1323 assessed as diameter of growth inhibition zone after 48 hr
Aspergillus fumigatus [16] = test: Antimicrobial activity against Aspergillus fumigatus MTCC 343 assessed as diameter of growth inhibition zone after 48 hr
Aspergillus niger [17] = test: Antimicrobial activity against Aspergillus niger MTCC 282 assessed as diameter of growth inhibition zone after 48 hr
Shigella flexneri [18] = test: Antimicrobial activity against Shigella flexneri MTCC1457 assessed as diameter of growth inhibition zone after 24 hr
Proteus vulgaris [19] = test: Antimicrobial activity against Proteus vulgaris MTCC 1771 assessed as diameter of growth inhibition zone after 24 hr
Salmonella typhi [20] = test: Antimicrobial activity against Salmonella enterica subsp. enterica serovar Typhi MTCC 733 assessed as diameter of growth inhibition zone after 24 hr
Klebsiella pneumoniae [21] = test: Antimicrobial activity against Klebsiella pneumoniae MTCC 109 assessed as diameter of growth inhibition zone after 24 hr
Pseudomonas aeruginosa [22] = test: Antimicrobial activity against Pseudomonas aeruginosa MTCC 741 assessed as diameter of growth inhibition zone after 24 hr
Escherichia coli [23] = test: Antimicrobial activity against Escherichia coli MTCC 739 assessed as diameter of growth inhibition zone after 24 hr
Bacillus cereus [24] = test: Antimicrobial activity against Bacillus cereus MTCC 430 assessed as diameter of growth inhibition zone after 24 hr
Staphylococcus aureus [25] = test: Antimicrobial activity against Staphylococcus aureus MTCC 96 assessed as diameter of growth inhibition zone after 24 hr

Question: Which “growth inhibition (GI)” value [1] does the source give for N#Cc1c(-c2ccc(O)cc2O)cc(-c2ccc(Nc3cc(=O)oc4ccccc34)cc2)nc1N here?
Answer: 97%

Question: What about the MIC [1] of the same molecule?
Answer: 100 µg/mL (≈ 216 µM)

Question: What about the MIC (Candida albicans [2]) of the same molecule?
Answer: 12.5 µg/mL (≈ 27 µM)

Question: And the MIC (Aspergillus clavatus [3])?
Answer: 6.25 µg/mL (≈ 13.5 µM)

Question: And the MIC (Aspergillus fumigatus [4])?
Answer: 6.25 µg/mL (≈ 13.5 µM)

Question: What about the MIC (Aspergillus niger [5]) of the same molecule?
Answer: 12.5 µg/mL (≈ 27 µM)

Question: And the MIC (Shigella flexneri [6])?
Answer: 6.25 µg/mL (≈ 13.5 µM)

Question: What about the MIC (Proteus vulgaris [7]) of the same molecule?
Answer: 12.5 µg/mL (≈ 27 µM)

Question: And the MIC (Salmonella typhi [8])?
Answer: 3.12 µg/mL (≈ 6.75 µM)

Question: And the MIC (Klebsiella pneumoniae [9])?
Answer: 3.12 µg/mL (≈ 6.75 µM)

Question: And the MIC (Pseudomonas aeruginosa [10])?
Answer: 6.25 µg/mL (≈ 13.5 µM)

Question: And the MIC (Escherichia coli [11])?
Answer: 12.5 µg/mL (≈ 27 µM)

Question: What about the MIC (Bacillus cereus [12]) of the same molecule?
Answer: 6.25 µg/mL (≈ 13.5 µM)

Question: And the MIC (Staphylococcus aureus [13])?
Answer: 12.5 µg/mL (≈ 27 µM)

Question: What about the “diameter of the inhibition zone (DIZ)” value (Candida albicans [14]) of the same molecule?
Answer: 23 mm

Question: And the “diameter of the inhibition zone (DIZ)” value (Aspergillus clavatus [15])?
Answer: 27 mm

Question: What about the “diameter of the inhibition zone (DIZ)” value (Aspergillus fumigatus [16]) of the same molecule?
Answer: 25 mm

Question: What about the “diameter of the inhibition zone (DIZ)” value (Aspergillus niger [17]) of the same molecule?
Answer: 22 mm

Question: And the “diameter of the inhibition zone (DIZ)” value (Shigella flexneri [18])?
Answer: 26 mm

Question: What about the “diameter of the inhibition zone (DIZ)” value (Proteus vulgaris [19]) of the same molecule?
Answer: 23 mm

Question: And the “diameter of the inhibition zone (DIZ)” value (Salmonella typhi [20])?
Answer: 28 mm

Question: And the “diameter of the inhibition zone (DIZ)” value (Klebsiella pneumoniae [21])?
Answer: 30 mm

Question: And the “diameter of the inhibition zone (DIZ)” value (Pseudomonas aeruginosa [22])?
Answer: 27 mm

Question: What about the “diameter of the inhibition zone (DIZ)” value (Escherichia coli [23]) of the same molecule?
Answer: 24 mm

Question: And the “diameter of the inhibition zone (DIZ)” value (Bacillus cereus [24])?
Answer: 26 mm

Question: And the “diameter of the inhibition zone (DIZ)” value (Staphylococcus aureus [25])?
Answer: 22 mm

Question: With Nc1nc(-c2ccc(Nc3cc(=O)oc4ccccc34)cc2)cc(-c2ccc(O)cc2O)n1 as the molecule, how does the “growth inhibition (GI)” value [1] read?
Answer: 97%

Question: And the MIC [1]?
Answer: 200 µg/mL (≈ 456 µM)

Question: What about the MIC (Candida albicans [2]) of the same molecule?
Answer: 25 µg/mL (≈ 57 µM)

Question: And the MIC (Aspergillus clavatus [3])?
Answer: 6.25 µg/mL (≈ 14.3 µM)

Question: And the MIC (Aspergillus fumigatus [4])?
Answer: 12.5 µg/mL (≈ 28.5 µM)

Question: And the MIC (Aspergillus niger [5])?
Answer: 12.5 µg/mL (≈ 28.5 µM)

Question: What about the MIC (Shigella flexneri [6]) of the same molecule?
Answer: 12.5 µg/mL (≈ 28.5 µM)

Question: And the MIC (Proteus vulgaris [7])?
Answer: 3.12 µg/mL (≈ 7.12 µM)

Question: And the MIC (Salmonella typhi [8])?
Answer: 12.5 µg/mL (≈ 28.5 µM)

Question: What about the MIC (Klebsiella pneumoniae [9]) of the same molecule?
Answer: 6.25 µg/mL (≈ 14.3 µM)

Question: And the MIC (Pseudomonas aeruginosa [10])?
Answer: 12.5 µg/mL (≈ 28.5 µM)

Question: And the MIC (Escherichia coli [11])?
Answer: 12.5 µg/mL (≈ 28.5 µM)

Question: What about the MIC (Bacillus cereus [12]) of the same molecule?
Answer: 12.5 µg/mL (≈ 28.5 µM)

Question: What about the MIC (Staphylococcus aureus [13]) of the same molecule?
Answer: 12.5 µg/mL (≈ 28.5 µM)

Question: What about the “diameter of the inhibition zone (DIZ)” value (Candida albicans [14]) of the same molecule?
Answer: 21 mm

Question: What about the “diameter of the inhibition zone (DIZ)” value (Aspergillus clavatus [15]) of the same molecule?
Answer: 25 mm

Question: And the “diameter of the inhibition zone (DIZ)” value (Aspergillus fumigatus [16])?
Answer: 25 mm

Question: What about the “diameter of the inhibition zone (DIZ)” value (Aspergillus niger [17]) of the same molecule?
Answer: 22 mm

Question: And the “diameter of the inhibition zone (DIZ)” value (Shigella flexneri [18])?
Answer: 23 mm

Question: And the “diameter of the inhibition zone (DIZ)” value (Proteus vulgaris [19])?
Answer: 28 mm

Question: What about the “diameter of the inhibition zone (DIZ)” value (Salmonella typhi [20]) of the same molecule?
Answer: 24 mm

Question: What about the “diameter of the inhibition zone (DIZ)” value (Klebsiella pneumoniae [21]) of the same molecule?
Answer: 26 mm

Question: What about the “diameter of the inhibition zone (DIZ)” value (Pseudomonas aeruginosa [22]) of the same molecule?
Answer: 23 mm

Question: And the “diameter of the inhibition zone (DIZ)” value (Escherichia coli [23])?
Answer: 22 mm

Question: What about the “diameter of the inhibition zone (DIZ)” value (Bacillus cereus [24]) of the same molecule?
Answer: 21 mm

Question: And the “diameter of the inhibition zone (DIZ)” value (Staphylococcus aureus [25])?
Answer: 21 mm

Question: Which results are given for COc1ccc(-c2cc(-c3ccc(Nc4cc(=O)oc5ccccc45)cc3)nc(N)c2C#N)cc1?
Answer: growth inhibition (GI) [1]: 96%; MIC [1]: 62.5 µg/mL (≈ 136 µM); MIC (Candida albicans [2]): 12.5 µg/mL (≈ 27.1 µM); MIC (Aspergillus clavatus [3]): 6.25 µg/mL (≈ 13.6 µM); MIC (Aspergillus fumigatus [4]): 12.5 µg/mL (≈ 27.1 µM); MIC (Aspergillus niger [5]): 12.5 µg/mL (≈ 27.1 µM); MIC (Shigella flexneri [6]): 12.5 µg/mL (≈ 27.1 µM); MIC (Proteus vulgaris [7]): 6.25 µg/mL (≈ 13.6 µM); MIC (Salmonella typhi [8]): 12.5 µg/mL (≈ 27.1 µM); MIC (Klebsiella pneumoniae [9]): 12.5 µg/mL (≈ 27.1 µM); MIC (Pseudomonas aeruginosa [10]): 6.25 µg/mL (≈ 13.6 µM); MIC (Escherichia coli [11]): 3.12 µg/mL (≈ 6.78 µM); MIC (Bacillus cereus [12]): 6.25 µg/mL (≈ 13.6 µM); MIC (Staphylococcus aureus [13]): 6.25 µg/mL (≈ 13.6 µM); diameter of the inhibition zone (DIZ) (Candida albicans [14]): 25 mm; diameter of the inhibition zone (DIZ) (Aspergillus clavatus [15]): 25 mm; diameter of the inhibition zone (DIZ) (Aspergillus fumigatus [16]): 21 mm; diameter of the inhibition zone (DIZ) (Aspergillus niger [17]): 25 mm; diameter of the inhibition zone (DIZ) (Shigella flexneri [18]): 24 mm; diameter of the inhibition zone (DIZ) (Proteus vulgaris [19]): 26 mm; diameter of the inhibition zone (DIZ) (Salmonella typhi [20]): 22 mm; diameter of the inhibition zone (DIZ) (Klebsiella pneumoniae [21]): 22 mm; diameter of the inhibition zone (DIZ) (Pseudomonas aeruginosa [22]): 25 mm; diameter of the inhibition zone (DIZ) (Escherichia coli [23]): 28 mm; diameter of the inhibition zone (DIZ) (Bacillus cereus [24]): 27 mm; diameter of the inhibition zone (DIZ) (Staphylococcus aureus [25]): 27 mm

Question: What does the source list for Nc1nc(-c2ccc(Nc3cc(=O)oc4ccccc34)cc2)cc(-c2ccccc2O)n1?
Answer: growth inhibition (GI) [1]: 97%; MIC [1]: 250 µg/mL (≈ 592 µM); MIC (Candida albicans [2]): 50 µg/mL (≈ 118 µM); MIC (Aspergillus clavatus [3]): 6.25 µg/mL (≈ 14.8 µM); MIC (Aspergillus fumigatus [4]): 12.5 µg/mL (≈ 29.6 µM); MIC (Aspergillus niger [5]): 25 µg/mL (≈ 59.2 µM); MIC (Shigella flexneri [6]): 25 µg/mL (≈ 59.2 µM); MIC (Proteus vulgaris [7]): 50 µg/mL (≈ 118 µM); MIC (Salmonella typhi [8]): 100 µg/mL (≈ 237 µM); MIC (Klebsiella pneumoniae [9]): 12.5 µg/mL (≈ 29.6 µM); MIC (Pseudomonas aeruginosa [10]): 50 µg/mL (≈ 118 µM); MIC (Escherichia coli [11]): 50 µg/mL (≈ 118 µM); MIC (Bacillus cereus [12]): 50 µg/mL (≈ 118 µM); MIC (Staphylococcus aureus [13]): 50 µg/mL (≈ 118 µM); diameter of the inhibition zone (DIZ) (Candida albicans [14]): 18 mm; diameter of the inhibition zone (DIZ) (Aspergillus clavatus [15]): 25 mm; diameter of the inhibition zone (DIZ) (Aspergillus fumigatus [16]): 23 mm; diameter of the inhibition zone (DIZ) (Aspergillus niger [17]): 21 mm; diameter of the inhibition zone (DIZ) (Shigella flexneri [18]): 20 mm; diameter of the inhibition zone (DIZ) (Proteus vulgaris [19]): 19 mm; diameter of the inhibition zone (DIZ) (Salmonella typhi [20]): 17 mm; diameter of the inhibition zone (DIZ) (Klebsiella pneumoniae [21]): 21 mm; diameter of the inhibition zone (DIZ) (Pseudomonas aeruginosa [22]): 18 mm; diameter of the inhibition zone (DIZ) (Escherichia coli [23]): 19 mm; diameter of the inhibition zone (DIZ) (Bacillus cereus [24]): 19 mm; diameter of the inhibition zone (DIZ) (Staphylococcus aureus [25]): 18 mm
